Source: patent publication US20100303887A1, “DHA and PEDF, a Therapeutic Composition for Nerve and Retinal Pigment Epithelial Cells” (priority 2007, published 2010)

Key:
ARPE-19 cells [1] = test: A2E-induced apoptosis in ARPE-19 cells (Hoechst 33258 staining); assay type: cell-based, human
Description: Hoechst Staining. ARPE-19 cells were incubated with 2 μM Hoechst reagent dissolved in Lock's solution (Promega Corporation, Madison. Wis.) at 37° C. for 45 minutes before imaging. Cells were washed once with PBS and photographed using a Nikon DIAPHOT 200 microscope with fluorescence optics. Images were recorded by a Hamamatsu Color Chilled 3CCD camera and PHOTOSHOP 5.0 software (Adobe Systems, Mountain View, Calif.).
(§1) A2E, a lipofusin component, accumulates in the RPE during aging, and, in an exaggerated manner, in age-related macular degeneration (AMD) and Stargardt macular dystrophy (an early onset form of AMD). As a consequence, RPE apoptosis precedes the demise of photoreceptors. […] Seventy-two (72) hours after plating, ARPE-19 cells were serum starved for 4 hours. A2E (20 μM) was added in the presence of 430 nM light and O2 (see Materials and Methods). Other cells were exposed instead to H2O2/TNFα. NPD1 was added prior to, or at different times after, A2E or H2O2/TNFα, up to 12 hours. Time of NPD1 addition is indicated by black arrows on FIG. 1A. Hoechst 33258 was analyzed at 15 hours. FIG. 1B illustrates the appearance of Hoechst 33258 positive cells upon exposure to A2E and the effect of NPD1. FIG. 1C is similar to FIG. 1B, except that H2O2/TNFα was used to trigger oxidative stress. […]

ARPE-19 cells [2] = test: Serum starvation/H2O2/TNFα oxidative stress-induced apoptosis in ARPE-19 cells (Hoechst staining); assay type: cell-based, human; details: NPD1 added eight hours after triggering oxidative stress
Description: Exposure of ARPE-19 cells to growth factors. Cells at 75-80% confluence (72 hr growth in DMEM/F12+10% FBS) were serum-starved for 2 hr before exposure to growth factors. The serum-starved cells were treated with TNF-α (Sigma-Aldrich Corporation, St. Louis, Mo.) (10 ng/ml) and H2O2 (600 μM) to induce oxidative stress and challenged with increasing concentrations (10, 30, 50 nM) and PEDF (Chemicon International, Temecula, Calif.) (50 ng/ml) simultaneously with oxidative stress for 4 hr before harvesting for protein analysis. Cell extracts were made and protein concentrations were adjusted by Bio-Rad protein reagent and used for Western-blot analysis. […] Cells were analyzed to detect Hoechst-positive apoptotic cells.
Hoechst Staining. […] Cells were washed once with PBS and photographed using a Nikon DIAPHOT 200 microscope with fluorescence optics. Images were recorded by a Hamamatsu Color Chilled 3CCD camera and PHOTOSHOP 5.0 software (Adobe Systems, Mountain View, Calif.).
A2E, a lipofusin component, accumulates in the RPE during aging, and, in an exaggerated manner, in age-related macular degeneration (AMD) and Stargardt macular dystrophy (an early onset form of AMD). […] Hoechst 33258 was analyzed at 15 hours. […]

ARPE-19 cells [3] = test: Cell viability using calcein (AM), ethidium homodimer and phase contrast microscopy after oxidative stress; assay type: cell-based, human; details: added up to 15 hr after triggering oxidative stress; data not shown
Description: A2E-triggered oxidative stress precedes cell death. Since oxidative stress and/or inflammatory signaling are involved in early stages of retinal degenerations, oxidative stress, triggered by another experimental condition, serum starvation/H2O2/TNFα was explored (FIG. 1C). NPD1 also exerted protection in this experimental condition. […] What was surprising was the extended time window. […] (Data not shown)

A2E oxiranes (epoxides) = test: A2E conversion to A2E oxiranes (epoxides) in ARPE-19 cells, LC-MS-MS; assay type: cell-based, human; details: NPD1 50 nM; light and oxygen
Description: as §1, with “stress. FIG. 1D depicts the formation of oxiranes (epoxides) upon exposure of ARPE-19 cells to A2E in the presence of O2 and 430 nM light for 15 minutes followed by 60 minutes incubation in the dark.” for “stress.”
To study the mechanism of NPD1-mediated RPE protection against A2E oxidative stress, the possibility that A2E conversion to A2E oxiranes (epoxides) may be the target of NPD1 was tested. […] Multiple oxiranes (epoxides), up to nonaoxiranes, were detected by MS-MS in ARPE-19 cells exposed to light and oxygen (FIG. 1D).

caspase-3 = test: Caspase-3 cleavage in A2E-exposed ARPE-19 cells (Western blot); assay type: cell-based, human; details: NPD1 50 nM
Description: (§2) Analysis of Bcl-2 and caspase-3 cleavage. Bcl-2 protein and caspase-3 cleavage were analyzed by Western-blot analysis. Also, ARPE-19 cells, stably transfected with a lentivirus construct containing the […] caspase 3 cleavage sequence, were used. In short, 15-20 μg equivalent of each cell extract were subjected to electrophoresis on an 8-16% gel (Invitrogen Corporation, Carlsbad, Calif.) at 125 volts for 2 hr. The proteins were transferred to nitrocellulose membranes at 30 volts for 70 minutes at 4° C. The membranes were probed with primary antibodies against Bcl-2 (Santa Cruz Biotechnology, Inc., Santa Cruz, Calif.) and cleaved caspase-3 (Asp-175) (Cell Signaling) at room temperature and treated for 20 minutes with the secondary antibody, goat anti-rabbit IgG: horseradish peroxidase, and horseradish peroxidase-conjugated anti-biotin antibody, then proteins were detected by using an ECL kit (Amersham Biosciences, Buckinghamshire, United Kingdom).
(§3) Caspase cleavage and Bcl-2 changes triggered by A2E are restored by NPD1. […] NPD1 (50 nM) counteracted the effect of A2E (see Materials and Methods). Data is an average of relative density detection±SEM of six individuals. […] These findings indicate that NPD1 protects the RPE against A2E-induced apoptosis at the pre-mitochondrial level of the apoptosis cascade by altering Bcl-2 balance. […]

Bax = Bax expression in A2E-exposed ARPE-19 cells (Western blot); assay type: cell-based, human; details: NPD1 50 nM
Bcl-2 = Bcl-2 expression in A2E-exposed ARPE-19 cells (Western blot); assay type: cell-based, human; details: NPD1 50 nM
Description: as §2, §3

NPD1 synthesis = NPD1 synthesis and release from polarized primary human RPE cell monolayers (lipidomic analysis); assay type: cell-based
Description: Human RPE cells. Cultures of retinal pigment epithelial (RPE) cells were prepared. RPE cells were seeded onto Millicell-HA culture plate inserts (Millipore, Bradford, Mass.), placed in 24-well plates, and allowed to reach confluence. Consent for use of tissue for research was obtained in compliance with Federal and State law and institutional regulations. Cultures were maintained in Chee's essential replacement medium until the experiments were performed as described in J. Hu and D. Bok (2001) Mol Vis 7:14-19. The medium includes Eagle's minimal essential medium with calcium (MEM, Irvine Scientific, Irvine, Calif.), 1% heat-inactivated calf serum (JRH Bioscience, Lennexo, Kans.), amino acid supplements, and 1% bovine retinal extract. The Millicell-HA filter inserts allow separate manipulation of the culture media bathing the apical and basal surfaces of the RPE monolayer and measurement of the transepithelial resistance (TER), which provides a measure of cell differentiation and confluency. Cultures were used for experiments once they developed a TER of at least 400 Ω·cm^2, as measured by an Epithelial Volt-ohmmeter (EVOM, World Precision Instruments, New Haven, Conn.).
Exposure of RPE cells to growth factors. […] […] The lower chamber was filled with 500 μl media (bathing the basal cell monolayer surface) containing 0.1% HSA. Cells were incubated for 72 hours, then apical and basal media were removed and collected for analysis. After allowing the cells to rest for at least 72 hours on fresh media, the experiments were repeated.
Lipidomic analysis. Human RPE primary cell cultures or ARPE-19 cells were separated from culture media and washed with 1 ml PBS. After addition of 1 ml methanol, cells were scraped from plates or millicell membranes and collected for lipid extraction. Media was spun-down to separate cell debris, then 350 μl were collected in 1 ml of cold chloroform:methanol (1:1). Protein precipitates were then separated by centrifugation at 1500×g (5 min, 4° C.). Lipid extracts were collected, and kept under nitrogen at −80° C. until solid-phase purification; extracts were pre-equilibrated at pH 3.0 in 10% methanol/water, then loaded to 500 mg C18 columns (Varian, Inc., Palo Alto, Calif.), and eluted with 1% methanol/ethyl acetate. Eluates were concentrated on a N2 stream evaporator. Samples were loaded to a liquid chromatograph-tandem mass spectrometer (LC-TSQ Quantum, Thermo-Finnigan; Thermo Fisher Scientific, Waltham, Mass.) installed with a Biobasic-AX column (Thermo-Hypersil-Keystone, Thermo Fisher Scientific, Waltham, Mass.) (100 mm\2.1 mm, 5-μm particle sizes), and eluted in a linear gradient [100% solution A (40:60:0.01 methanol/water/acetic acid pH 4.5) to 100% solution B (99.99:0.01 methanol/acetic acid)], at a flow rate of 300 μl/min for 30 minutes. LC effluents were diverted to an electro-spray-ionization probe (ESI) on a TSQ Quantum (Thermo-Finnigan, Thermo Fisher Scientific, Waltham, Mass.) triple quadrupole mass spectrometer. NPD1 and resolving D1 were obtained by biogenic synthesis as described in N. G. Bazan, D. L. Birkle, and T. S. Reddy (1984) Biochem Biophys Res Commun. 125:741-74, and V. L. Marcheselli et al. (2003) J. Biol. Chem. 278:43807-43817. Erratum in: (2003) J Biol Chem 278:51974. Other lipid standards (Cayman Chem. Ann Arbor, Mich.) were used for tuning and optimization and to create calibration curves. The instrument was set on full-scan mode, to detect parent ions, and selected reaction mode (SRM) for quantitative analysis, to detect product ions, simultaneously. The selected parent/product ions (m/z) and collision energy (v) obtained by running on negative ion detection mode were: 359.2/153.1/20 for NPD1, 343.2/281.2/18 for resolving D1, 351.2/195.0/22 for 20HO-LTB4 (used as internal standard), 327.2/283.3/16 for DHA, 311.3/267.3/20 Arachidonic Acid-d8 (used as internal standard, IS).
Neurotrophins activated NPD1 synthesis in cultured primary human RPE cells. […]

[4] = increasing concentrations, 72 hr

For `CC/C=C\C[C@H](O)\C=C/C=C/C=C/[C@H](O)C/C=C\C/C=C\CCC(=O)O` [NPD1, Neuroprotectin D1], the “Cytoprotection against A2E-induced apoptosis (Hoechst 33258 positive cells)” value (ARPE-19 cells [1]; A2E 20 μM, 430 nm light and O2, Hoechst at 15 hours) was “cytoprotective”, the “Protection against A2E-induced apoptosis, delayed addition” value (ARPE-19 cells [1]; NPD1 50 nM added 6 hours after A2E) was “ensures protection” and the “Protection against H2O2/TNFα oxidative stress-induced apoptosis, delayed addition” value (ARPE-19 cells [2]) was “resulted in protection”. The “Protection of cell viability (calcein AM, ethidium homodimer, phase contrast)” value (ARPE-19 cells [3]) was “showed protection”, the “Effect on A2E conversion to A2E oxiranes (epoxides)” value (A2E oxiranes (epoxides)) was “did not affect this conversion” and the “Effect on A2E-enhanced caspase-3 cleavage” value (caspase-3) was “counteracted A2E-enhanced caspase-3 cleavage”. For the same molecule, the “Effect on Bax expression” value (Bax) was “showed a tendency to decrease Bax expression” and the “Effect on Bcl-2 protein expression” value (Bcl-2) was “increased Bcl-2 protein expression”.

For `CC/C=C\C/C=C\C/C=C\C/C=C\C/C=C\C/C=C\CCC(=O)O` [DHA, docosahexaenoic acid], the “Cellular NPD1 content (percentile distribution of total NPD1)” value (NPD1 synthesis; 200 nM DHA (25% when no DHA was added)) was 7% and the “DHA concentration at which NPD1 in the apical media reaches a maximum” value (NPD1 synthesis; DHA treatment on the apical media) was 50 nM.

For `CCCCC/C=C\C/C=C\C/C=C\C/C=C\CCCC(=O)O` [arachidonic acid, reference compound], the “NPD1 synthesis and release, fatty acid added to the apical medium” value (NPD1 synthesis; 72 hr, DHA 0 to 200 nM, arachidonic acid under similar conditions) was “failed to induce NPD1 synthesis” and the “NPD1 synthesis, arachidonic acid in the presence of PEDF” value (NPD1 synthesis; added arachidonic acid with PEDF) was “did not stimulate NPD1 synthesis”.

B1: CNTF: ciliary neurotrophic factor, a neurotrophin (protein, UniProt P26441 1-200, looked up)
Ciliary neurotrophic factor: MAFTEHSPLTPHRRDLCSRSIWLARKIRSDLTALTESYVKHQGLNKNINLDSADGMPVASTDQWSELTEAERLQENLQAYRTFHVLLARLLEDQQVHFTPTEGDFHQAIHTLLLQVAAFAYQIEELMILLEYKIPRNEADGMPINVGDGGLFEKKLWGLKVLQELSQWTVRSIHDLRFISSHQTGIPARGSHYIANNKKM
For B1, the “NPD1 release, neurotrophin added to the apical medium” value (NPD1 synthesis; [4]) was “concentration-dependent increases in NPD1 release only on the apical side” and the “NPD1 release, neurotrophin added to the basal medium” value (NPD1 synthesis; [4]) was “much less NPD1 release on the apical side”.
